Consider 53 molecules from patent US8981111B2 (priority 2008, dated 2015).

A short description of one data set: log P (HPLC/MS data of the preparation examples). To be noted: HCOOH.
For the molecule “2-(6-{[({(3-bromo-4-methoxyphenyl)[3-chloro-5-(trifluoromethyl)pyridin-2-yl]methylene}amino)oxy]methyl}pyridin-2-yl)-1H-isoindole-1,3(2H)-dione [Example 430]”, the “log P(HCOOH)” value was 4.78.

As for “2-[({[(1-methyl-1H-imidazol-5-yl)(phenyl)methylene]amino}oxy)methyl]pyrimidin-4-amine [Example 105]”, the “log P(HCOOH)” value is recorded as less than 0.23.

Take “2-methyl-N-{4-[({[(1-methyl-1H-imidazol-5-yl)(phenyl)methylene]amino}-oxy)methyl]-1,3-thiazol-2-yl}propanamide [Example 143]”: the “log P(HCOOH)” value was determined as 1.63.

As to “2-{6-[({[(1-methyl-1H-imidazol-5-yl)(3-thienyl)methylene]amino}oxy)-methyl]pyridin-2-yl}-1H-isoindole-1,3(2H)-dione [Example 491]”, the “log P(HCOOH)” value is reported as 1.73.

In the case of “6-[({[(1-methyl-1H-imidazol-5-yl)(phenyl)methylene]amino}oxy)methyl]pyridin-2-amine [Example 108]”, the “log P(HCOOH)” value worked out at 0.29.

Regarding “6-{[({(3-bromo-4-methoxyphenyl)[3-chloro-5-(trifluoromethyl)pyridin-2-yl]methylene}amino)oxy]methyl}pyridin-2-amine [Example 432]”, the “log P(HCOOH)” value was 2.54.

The data set is the same for the next values; noted with them: HCOOH (formic acid).
For the molecule `Cc1ncc(C(=NO)c2ccccc2)n1C` [1-(1,2-dimethyl-1H-imidazol-5-yl)-N-hydroxy-1-phenylmethanimine], the chromatographic logP came to 0.43.

`ON=C(c1ccsc1)c1snc(Cl)c1Cl` [1-(3,4-dichloro-1,2-thiazol-5-yl)-N-hydroxy-1-(3-thienyl)methanimine] showed a chromatographic logP of 3.04.

In turn, `Cc1cnc(C)c(C(=NO)c2ccccc2)n1` [1-(3,6-dimethylpyrazin-2-yl)-N-hydroxy-1-phenylmethanimine] came in with a chromatographic logP of 1.7.

`CON(C)C(=O)c1snc(Cl)c1Cl` [3,4-dichloro-N-methoxy-N-methyl-1,2-thiazole-5-carboxamide]: the chromatographic logP stood at 1.66.

Regarding `Cc1ncc(C(=O)c2ccccc2)n1C` [(1,2-dimethyl-1H-imidazol-5-yl)(phenyl)methanone], the chromatographic logP was 0.56.

As for `Cn1ccnc1C(=O)c1ccccc1` [(1-methyl-1H-imidazol-2-yl)(phenyl)methanone], the chromatographic logP amounted to 1.38.

Turning to `Cn1cncc1C(=O)c1cccs1` [(1-methyl-1H-imidazol-5-yl)(2-thienyl)methanone], the chromatographic logP was found to be 0.52.

Regarding `Cn1cncc1C(=O)c1ccsc1` [(1-methyl-1H-imidazol-5-yl)(3-thienyl)methanone], the chromatographic logP was found to be 0.43. This chromatographic logP and that of the molecule before are within 0.2 log units of each other.

`Cn1cncc1C(=O)c1ccccc1` [(1-methyl-1H-imidazol-5-yl)(phenyl)methanone] displayed a chromatographic logP of 0.79.

Turning to `O=C(c1ccsc1)c1snc(Cl)c1Cl` [(3,4-dichloro-1,2-thiazol-5-yl)(3-thienyl)methanone], the chromatographic logP was 3.31.

Consider `Cc1cnc(C)c(C(C#N)c2ccccc2)n1` (stereo not drawn) [(3,6-dimethylpyrazin-2-yl)(phenyl)acetonitrile], for which the chromatographic logP was determined as 2.28.

Take `Cc1cnc(C)c(C(=O)c2ccccc2)n1` [(3,6-dimethylpyrazin-2-yl)(phenyl)methanone]: the chromatographic logP was 2.18. The chromatographic logP values of the last two molecules are within 0.2 log units of each other.

Take `Cc1nocc1C(=O)c1cccs1` [(3-methyl-1,2-oxazol-4-yl)(2-thienyl)methanone]: the chromatographic logP turned out to be 2.2.

`Cc1nocc1C(=NOC(=O)c1ccccn1)c1cccs1` [({[(3-methyl-1,2-oxazol-4-yl)(2-thienyl)methylene]amino}oxy)(pyridin-2-yl)methanone] showed a chromatographic logP of 2.25. This chromatographic logP and that of the molecule before are within 0.2 log units of each other.

Staying with this data set, now noted: HPLC (LC-MS) method [b]: pH 2.7, 0.1% formic acid in water and acetonitrile, linear gradient 10% to 95% acetonitrile; EEC directive 79/831 Annex V.A8.
As for “2-(6-{[({(3-bromo-4-methoxyphenyl)[3-chloro-5-(trifluoromethyl)pyridin-2-yl]methylene}amino)oxy]methyl}pyridin-2-yl)-1H-isoindole-1,3(2H)-dione [Example 430]”, the log p is 1.67^[b].

Regarding “2-{6-[({[(1-methyl-1H-imidazol-5-yl)(3-thienyl)methylene]amino}oxy)-methyl]pyridin-2-yl}-1H-isoindole-1,3(2H)-dione [Example 491]”, the log p was 3.67^[b].

For the molecule “6-{[({(3-bromo-4-methoxyphenyl)[3-chloro-5-(trifluoromethyl)pyridin-2-yl]methylene}amino)oxy]methyl}pyridin-2-amine [Example 432]”, the log p was 1.99^[b].

For `Cn1cncc1C(=NOCc1cccc(N)n1)c1ccsc1` (single isomer, unassigned) [Example 418], the log p is 0.39^[b].

For `Cn1cncc1C(=NOCc1cccc(N)n1)c1ccsc1` (single isomer, unassigned) [Example 419], the log p was 0.32^[b].

Turning to `CCCCCC(=O)Nc1cccc(CON=C(c2ccsc2)c2cncn2C)n1` (single isomer, unassigned) [Example 426], the log p was 1.99^[b].

Regarding `CCCCCC(=O)Nc1cccc(CON=C(c2ccsc2)c2cncn2C)n1` (single isomer, unassigned) [Example 427], the log p was 1.99^[b].

Take `CCCCCOC(=O)Nc1nc(CON=C(c2cccs2)c2cncn2C)cs1` (single isomer, unassigned) [Example 459]: the log p was 2.16^[b].

As for `CCCCCOC(=O)Nc1nc(CON=C(c2cccs2)c2cncn2C)cs1` (single isomer, unassigned) [Example 460], the log p is 2.25^[b].

In the case of `CCCCCOC(=O)Nc1nc(CON=C(c2ccsc2)c2cncn2C)cs1` (single isomer, unassigned) [Example 461], the log p is 2.22^[b].

`CCCCCOC(=O)Nc1nc(CON=C(c2ccsc2)c2cncn2C)cs1` (single isomer, unassigned) [Example 462]: the log p is 2.23^[b].

The data set is the same for the next values; noted with them: HPLC on reversed phase columns, method [a]: pH 2.3 with 0.1% phosphoric acid and acetonitrile as eluent.
In the case of `Cc1nnsc1C(=NOCc1ccccn1)c1ccccc1` [Example 1], the log p is 2.36^[a].

The same data set, now with this note: HPLC/MS with HCOOH (formic acid).
For `COc1ccc(C(=NO)c2ncc(C(F)(F)F)cc2Cl)cc1Br` [1-(3-bromo-4-methoxyphenyl)-1-[3-chloro-5-(trifluoromethyl)pyridin-2-yl]-N-hydroxymethanimine], the chromatographic logP amounted to 3.37.

Staying with this data set, now noted: LC-MS, method [b]: pH 2.7 with 0.1% formic acid in water and acetonitrile, linear gradient 10% to 95% acetonitrile.
Regarding “2-[({[(1-methyl-1H-imidazol-2-yl)(phenyl)methylene]amino}oxy)methyl]pyrimidin-4-amine [Example 7]”, the log p was 1.26^[b].

“2-[({[(1-methyl-1H-imidazol-5-yl)(phenyl)methylene]amino}oxy)methyl]pyrimidin-4-amine [Example 105]”: the log p is 5.05^[b].

With “6-[({[(1-methyl-1H-imidazol-5-yl)(phenyl)methylene]amino}oxy)methyl]pyridin-2-amine [Example 108]”, the log p was 4.75^[b].

Consider `Cn1cncc1C(=NOCc1cccc(N)n1)c1ccccc1` (single isomer, unassigned) [Example 97], for which the log p is 0.25^[b].

On to `Cn1cncc1C(=NOCc1cccc(N)n1)c1ccccc1` (single isomer, unassigned) [Example 98], for which the log p is 0.29^[b].

Turning to `Cn1cncc1C(=NOCc1cccc(NC(=O)C(C)(C)C)n1)c1ccccc1` (single isomer, unassigned) [Example 123], the log p was 2.1^[b].

As to `Cn1cncc1C(=NOCc1cccc(NC(=O)C(C)(C)C)n1)c1ccccc1` (single isomer, unassigned) [Example 126], the log p is 1.85^[b].

As for `CCCCCOC(=O)Nc1cccc(CON=C(c2ccccc2)c2ocnc2C)n1` (single isomer, unassigned) [Example 318], the log p was 4.34^[b].

In the case of `CCCCCOC(=O)Nc1cccc(CON=C(c2ccccc2)c2ocnc2C)n1` (single isomer, unassigned) [Example 319], the log p was 4.54^[b].

On to `CCCCCOC(=O)Nc1nc(CON=C(c2ccccc2)c2ocnc2C)cs1` (single isomer, unassigned) [Example 322], for which the log p is 3.87^[b].

In the case of `CCCCCC(=O)Nc1cccc(CON=C(c2ccccc2)c2ocnc2C)n1` (single isomer, unassigned) [Example 323], the log p was 3.67^[b].

For the molecule `Cc1ncoc1C(=NOCc1csc(N)n1)c1ccccc1` (single isomer, unassigned) [Example 350], the log p is 1.3^[b].

Turning to `Cn1ccnc1C(=NOCc1cccc(N2C(=O)c3ccccc3C2=O)n1)c1ccccc1` [Example 2], the log p was 1.8^[b].

The same data set, now with this note: LC-MS, method [c]: pH 7.8 with 0.001 molar ammonium hydrogen carbonate solution in water, linear gradient 10% to 95% acetonitrile.
Turning to `Cn1ccnc1C(=NOCc1nccc(N)n1)c1ccccc1` [Example 3], the log p is 1.42^[c].

Staying with this data set, now noted: Neutral.
“2-[({[(1-methyl-1H-imidazol-2-yl)(phenyl)methylene]amino}oxy)methyl]pyrimidin-4-amine [Example 7]”: the “log P(Neutral)” value was 1.42.

Staying with this data set, now noted: method [b]: LC-MS at pH 2.7, 0.1% formic acid in water / acetonitrile, linear gradient 10% to 95% acetonitrile.
Take “2-methyl-N-{4-[({[(1-methyl-1H-imidazol-5-yl)(phenyl)methylene]amino}-oxy)methyl]-1,3-thiazol-2-yl}propanamide [Example 143]”: the log p was 1.11^[b].

`Cc1nc(C(=NOCc2cccc(N3C(=O)c4ccccc4C3=O)n2)c2ccccc2)cs1` (single isomer, unassigned) [Example 168]: the log p was 3.27^[b].

For the molecule `Cc1nc(C(=NOCc2cccc(N)n2)c2ccccc2)cs1` (single isomer, unassigned) [Example 169], the log p was 1.7^[b].

Take `Cc1nc(C(=NOCc2cccc(N3C(=O)c4ccccc4C3=O)n2)c2ccccc2)cs1` (single isomer, unassigned) [Example 170]: the log p is 3.55^[b].

Consider `Cc1nc(C(=NOCc2cccc(NC(=O)CC(C)C)n2)c2ccccc2)cs1` (single isomer, unassigned) [Example 171], for which the log p was 3.46^[b].

Take `Cc1nc(C(=NOCc2cccc(NC(=O)Cc3ccccc3)n2)c2ccccc2)cs1` (single isomer, unassigned) [Example 173]: the log p is 3.61^[b].

For `Cc1nc(C(=NOCc2cccc(N)n2)c2ccccc2)cs1` (single isomer, unassigned) [Example 174], the log p was 1.47^[b].

For `CCCCCC(=O)Nc1cccc(CON=C(c2ccccc2)c2csc(C)n2)n1` (single isomer, unassigned) [Example 188], the log p was 3.89^[b].

For the molecule `CCCCCC(=O)Nc1cccc(CON=C(c2ccccc2)c2csc(C)n2)n1` (single isomer, unassigned) [Example 189], the log p is 4.26^[b].

For the molecule `Cc1nc(C(=NOCc2cccc(NC(=O)CC(C)C)n2)c2ccccc2)cs1` (single isomer, unassigned) [Example 190], the log p is 3.75^[b].

Consider `Cc1nc(C(=NOCc2cccc(NC(=O)Cc3ccccc3)n2)c2ccccc2)cs1` (single isomer, unassigned) [Example 191], for which the log p was 3.87^[b].

Staying with this data set, now noted: reversed phase HPLC column, pH 2.7.
As to `Cn1ncnc1C(=NOCc1cccc(N)n1)c1ccccc1` [Example 4, 6-[({[(1-methyl-1H-1,2,4-triazol-5-yl)(phenyl)methylene]amino}oxy)methyl]pyridin-2-amine], the chromatographic logP is 1.
